# Laboratory results: ChEMBL document CHEMBL4665659, “Utilizing comprehensive and mini-kinome panels to optimize the selectivity of quinoline inhibitors for cyclin G associated kinase (GAK)” (Bioorg Med Chem Lett, 2019)
# Target: T1, Cyclin-G-associated kinase (Homo sapiens, UniProt O14976)
# T1 sequence (O14976 whole entry): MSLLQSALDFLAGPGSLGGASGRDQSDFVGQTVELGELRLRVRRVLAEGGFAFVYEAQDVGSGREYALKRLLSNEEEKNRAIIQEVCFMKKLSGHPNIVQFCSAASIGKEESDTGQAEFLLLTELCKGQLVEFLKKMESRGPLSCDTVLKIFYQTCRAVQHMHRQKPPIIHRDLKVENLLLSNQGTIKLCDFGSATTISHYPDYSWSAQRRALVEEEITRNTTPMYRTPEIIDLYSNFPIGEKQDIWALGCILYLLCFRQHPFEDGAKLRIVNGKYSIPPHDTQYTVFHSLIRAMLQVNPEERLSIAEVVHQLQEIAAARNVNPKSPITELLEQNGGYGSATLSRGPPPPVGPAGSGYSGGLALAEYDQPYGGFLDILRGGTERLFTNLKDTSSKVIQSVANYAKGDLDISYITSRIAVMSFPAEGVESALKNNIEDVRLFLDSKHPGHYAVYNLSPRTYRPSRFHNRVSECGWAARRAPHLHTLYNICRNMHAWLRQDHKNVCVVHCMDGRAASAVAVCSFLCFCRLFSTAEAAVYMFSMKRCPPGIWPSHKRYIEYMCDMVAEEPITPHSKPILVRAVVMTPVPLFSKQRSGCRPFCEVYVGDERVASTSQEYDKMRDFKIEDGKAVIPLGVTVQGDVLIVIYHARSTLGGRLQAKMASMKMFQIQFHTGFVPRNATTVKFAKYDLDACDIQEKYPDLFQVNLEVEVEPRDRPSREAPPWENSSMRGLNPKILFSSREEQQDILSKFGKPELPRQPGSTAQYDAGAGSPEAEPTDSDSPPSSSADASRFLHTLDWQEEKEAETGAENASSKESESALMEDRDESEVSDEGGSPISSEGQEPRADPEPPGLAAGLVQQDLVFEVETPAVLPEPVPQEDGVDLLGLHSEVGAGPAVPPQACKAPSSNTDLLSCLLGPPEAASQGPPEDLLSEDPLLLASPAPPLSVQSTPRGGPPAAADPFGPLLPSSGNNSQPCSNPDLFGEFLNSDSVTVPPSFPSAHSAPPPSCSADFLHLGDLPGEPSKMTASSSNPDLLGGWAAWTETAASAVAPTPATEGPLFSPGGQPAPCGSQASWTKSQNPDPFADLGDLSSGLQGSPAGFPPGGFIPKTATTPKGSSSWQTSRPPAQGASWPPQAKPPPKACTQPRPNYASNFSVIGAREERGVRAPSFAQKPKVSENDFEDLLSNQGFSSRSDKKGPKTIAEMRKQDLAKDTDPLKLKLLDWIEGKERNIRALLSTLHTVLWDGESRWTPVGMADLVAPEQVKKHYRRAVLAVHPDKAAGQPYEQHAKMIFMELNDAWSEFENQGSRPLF
# Test: Binding affinity to human wild type partial length GAK (G13 to Y338 residues) expressed in bacterial expression system by KinomeScan method
row,Structure (SMILES),Kd [nM]
1,COc1cc(Nc2ccnc3cc(C(F)(F)F)ccc23)cc(OC)c1OC,23
2,COc1cc(Nc2ccnc3cc(Cl)ccc23)cc(OC)c1OC,13
3,COc1cc(Nc2ccnc3cc(C#N)ccc23)cc(OC)c1OC,43

# These reach a lower Kd. Values come first.
row,Kd [nM],Structure (SMILES)
1,8.6,COc1cc(Nc2ccnc3cc(Br)ccc23)cc(OC)c1OC
2,7.6,COc1cc(Nc2ccnc3cc(I)ccc23)cc(OC)c1OC
